In patent US20110144069A1, “COMPOUNDS FOR TREATING VIRAL INFECTIONS” (priority 2006, published 2011) one finds CC50 and EC50 data, which are given here for three compounds.

The subject of one data set is mock-infected MT-4 cells. In words: Compound toxicity in mock-infected cells (WST-1 assay). Particulars: toxicity measure, host cells; read-out: TC50 (concentration of compound that results in death of 50% of the host cells). The class given is cell-based. The procedure: (§1) The HTLV-1 transformed T cell line, MT-4, is highly susceptible to HIV-1 infection. Anti-HIV-1 agents were evaluated in this target cell line by protection from the HIV-induced cytopathic effect. In this assay, viability of both HIV-1 and mock-infected cells was assessed in a colorimetric assay that monitors the ability of metabolically-active cells to reduce the tetrazolium salt WST-1. Cytoprotection by antiviral compounds is indicated by the positive readout of increased WST-1 cleavage.
(§2) Briefly, exponentially growing MT-4 cells were mock-infected or batch-infected with the HIV-1 laboratory strain, NL4-3, at a multiplicity of infection of 0.0005. Following a two hour infection, the cells were washed to remove unbound virus and plated in the presence of increasing concentrations of compound. After four days incubation, cytoprotection in the infected cells and compound toxicity in mock-infected cells were analyzed using the WST-1 assay.
On the technique in general: Tetrazolium dyes change colour on reduction, which living cells bring about.

For data set [1], the system named is HIV-1 laboratory strain, NL4-3. In words: MT-4 Cytoprotection Assay (protection from HIV-induced cytopathic effect, WST-1). Type of data set: cell-based. Particulars: Human immunodeficiency virus 1, NL43; representative compounds; read-out: EC50 of less than about 100 nm. The procedure: MT-4 Cytoprotection Assay
as §1, §2

Each structure is given as a SMILES string.

In general, EC50 refers to the concentration at which the effect is half-maximal.

As for `C=C(C)[C@@H]1CC[C@]2(C(=O)NCc3ccc(C(=O)O)cc3)CC[C@]3(C)[C@H](CC[C@@H]4[C@@]5(C)CC[C@H](OC(=O)CC(C)(C)C(=O)O)C(C)(C)[C@@H]5CC[C@]43C)[C@@H]12` [Compound 71], the CC50 with mock-infected MT-4 cells is around 7.7 µM.

Turning to `C=C(C)[C@@H]1CC[C@]2(C(=O)NCc3ccccc3C(=O)O)CC[C@]3(C)[C@H](CC[C@@H]4[C@@]5(C)CC[C@H](OC(=O)CC(C)(C)C(=O)O)C(C)(C)[C@@H]5CC[C@]43C)[C@@H]12` [Compound 73], the CC50 with mock-infected MT-4 cells is around 6.3 µM.

In the case of `CC(C)[C@@H]1CC[C@]2(C(=O)NCCC3CCCCC3)CC[C@]3(C)[C@H](CC[C@@H]4[C@@]5(C)CC[C@H](OC(=O)CC(C)(C)C(=O)O)C(C)(C)[C@@H]5CC[C@]43C)[C@@H]12` [Compound 124], the EC50 in data set [1] is below 0.1 µM.
